These results are taken from ChEMBL document CHEMBL3991601, “The target landscape of clinical kinase drugs” (Science, 2017).

The structures appear in SMILES notation. Active and inactive are the calls of the source. Rule as the data show it, for most assays here: actives have a measured Kd and inactives only a lower limit.

The target of experiment [1] is T1, STE20-related kinase adapter protein alpha (Homo sapiens, UniProt Q7RTN6).
T1 sequence (Q7RTN6 whole entry): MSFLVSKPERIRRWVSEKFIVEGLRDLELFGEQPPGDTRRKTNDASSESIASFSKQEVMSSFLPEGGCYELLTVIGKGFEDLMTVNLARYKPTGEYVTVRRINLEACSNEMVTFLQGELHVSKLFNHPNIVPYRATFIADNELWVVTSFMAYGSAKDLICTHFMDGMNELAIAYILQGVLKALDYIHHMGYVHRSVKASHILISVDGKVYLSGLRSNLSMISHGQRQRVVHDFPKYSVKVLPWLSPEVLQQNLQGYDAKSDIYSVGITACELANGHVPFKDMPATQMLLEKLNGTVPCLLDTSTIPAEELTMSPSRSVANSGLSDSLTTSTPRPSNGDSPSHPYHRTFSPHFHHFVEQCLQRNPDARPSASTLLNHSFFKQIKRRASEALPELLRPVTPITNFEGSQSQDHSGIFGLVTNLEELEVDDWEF

The target of experiment [2] is Ribosomal protein S6 kinase alpha-3 (Homo sapiens, UniProt P51812).
Chain of Ribosomal protein S6 kinase alpha-3 (P51812 whole entry): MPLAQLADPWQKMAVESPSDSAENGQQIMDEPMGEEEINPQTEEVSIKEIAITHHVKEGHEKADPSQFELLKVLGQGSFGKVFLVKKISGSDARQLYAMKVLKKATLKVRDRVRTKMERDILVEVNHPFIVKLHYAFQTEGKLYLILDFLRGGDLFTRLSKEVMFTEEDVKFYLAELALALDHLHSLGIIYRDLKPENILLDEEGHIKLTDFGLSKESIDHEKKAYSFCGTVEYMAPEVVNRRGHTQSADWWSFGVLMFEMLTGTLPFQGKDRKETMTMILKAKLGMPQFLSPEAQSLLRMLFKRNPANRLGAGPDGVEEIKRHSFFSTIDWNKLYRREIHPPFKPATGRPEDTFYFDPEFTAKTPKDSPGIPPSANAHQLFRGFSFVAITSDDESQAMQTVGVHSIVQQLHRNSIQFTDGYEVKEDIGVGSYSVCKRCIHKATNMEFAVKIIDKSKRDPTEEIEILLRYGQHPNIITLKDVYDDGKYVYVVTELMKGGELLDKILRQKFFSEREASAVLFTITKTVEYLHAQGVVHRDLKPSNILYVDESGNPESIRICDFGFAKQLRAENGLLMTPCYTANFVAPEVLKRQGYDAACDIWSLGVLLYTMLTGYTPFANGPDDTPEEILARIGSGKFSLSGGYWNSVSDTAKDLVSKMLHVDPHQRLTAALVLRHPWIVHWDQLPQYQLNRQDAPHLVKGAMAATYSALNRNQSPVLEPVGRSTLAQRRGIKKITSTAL
In experiment [3] the target is T2, Dual specificity mitogen-activated protein kinase kinase 5 (Homo sapiens, UniProt Q13163).
T2 sequence (Q13163 whole entry): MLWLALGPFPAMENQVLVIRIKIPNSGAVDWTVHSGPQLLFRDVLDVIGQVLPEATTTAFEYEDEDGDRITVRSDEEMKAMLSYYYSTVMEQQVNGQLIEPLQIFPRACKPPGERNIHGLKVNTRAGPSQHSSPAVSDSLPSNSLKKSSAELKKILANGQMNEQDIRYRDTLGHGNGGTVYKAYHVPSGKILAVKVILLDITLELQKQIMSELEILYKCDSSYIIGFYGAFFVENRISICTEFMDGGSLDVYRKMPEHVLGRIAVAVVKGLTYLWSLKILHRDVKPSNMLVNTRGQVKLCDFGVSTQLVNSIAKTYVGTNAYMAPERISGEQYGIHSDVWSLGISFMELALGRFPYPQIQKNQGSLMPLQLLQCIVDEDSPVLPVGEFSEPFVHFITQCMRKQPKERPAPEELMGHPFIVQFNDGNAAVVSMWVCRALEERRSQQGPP

The target in experiment [4] is Adenylate kinase 2, mitochondrial (Homo sapiens, UniProt P54819).
For experiment [5], the target named is Cyclin-dependent kinase 6 (Homo sapiens, UniProt Q00534).
Chain of Cyclin-dependent kinase 6 (Q00534 whole entry): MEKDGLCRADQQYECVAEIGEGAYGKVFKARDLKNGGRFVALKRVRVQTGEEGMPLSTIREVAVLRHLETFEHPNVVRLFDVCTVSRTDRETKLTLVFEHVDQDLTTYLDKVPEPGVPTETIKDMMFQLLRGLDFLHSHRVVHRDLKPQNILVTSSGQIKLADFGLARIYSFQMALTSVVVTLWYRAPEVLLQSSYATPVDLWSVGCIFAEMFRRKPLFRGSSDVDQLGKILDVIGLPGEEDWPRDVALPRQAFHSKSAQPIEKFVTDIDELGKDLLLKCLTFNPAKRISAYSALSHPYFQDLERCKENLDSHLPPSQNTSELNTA
The target of experiment [6] is MAP/microtubule affinity-regulating kinase 3 (Homo sapiens, UniProt P27448).
Chain of MAP/microtubule affinity-regulating kinase 3 (P27448 whole entry): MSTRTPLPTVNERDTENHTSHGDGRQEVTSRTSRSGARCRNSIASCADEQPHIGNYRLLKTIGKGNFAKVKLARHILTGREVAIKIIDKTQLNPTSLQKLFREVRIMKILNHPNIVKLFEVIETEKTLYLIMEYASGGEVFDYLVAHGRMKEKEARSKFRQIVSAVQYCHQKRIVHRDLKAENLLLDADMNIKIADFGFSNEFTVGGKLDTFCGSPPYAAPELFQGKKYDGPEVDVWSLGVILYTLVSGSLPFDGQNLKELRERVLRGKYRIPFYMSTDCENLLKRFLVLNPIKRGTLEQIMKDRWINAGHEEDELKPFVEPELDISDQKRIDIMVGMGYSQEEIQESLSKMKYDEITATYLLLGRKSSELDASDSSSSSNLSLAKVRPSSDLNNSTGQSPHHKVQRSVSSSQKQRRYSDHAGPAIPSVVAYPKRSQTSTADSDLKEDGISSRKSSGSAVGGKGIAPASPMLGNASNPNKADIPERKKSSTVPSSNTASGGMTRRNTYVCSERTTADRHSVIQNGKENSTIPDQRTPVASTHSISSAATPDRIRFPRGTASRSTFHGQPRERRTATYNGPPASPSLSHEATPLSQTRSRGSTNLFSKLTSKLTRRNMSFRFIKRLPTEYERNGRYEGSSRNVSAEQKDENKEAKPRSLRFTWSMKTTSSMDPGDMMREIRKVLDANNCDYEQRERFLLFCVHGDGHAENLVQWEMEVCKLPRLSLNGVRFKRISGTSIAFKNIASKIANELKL
The target of experiment [7] is Epidermal growth factor receptor (Homo sapiens, UniProt P00533).
Chain of Epidermal growth factor receptor (P00533 whole entry): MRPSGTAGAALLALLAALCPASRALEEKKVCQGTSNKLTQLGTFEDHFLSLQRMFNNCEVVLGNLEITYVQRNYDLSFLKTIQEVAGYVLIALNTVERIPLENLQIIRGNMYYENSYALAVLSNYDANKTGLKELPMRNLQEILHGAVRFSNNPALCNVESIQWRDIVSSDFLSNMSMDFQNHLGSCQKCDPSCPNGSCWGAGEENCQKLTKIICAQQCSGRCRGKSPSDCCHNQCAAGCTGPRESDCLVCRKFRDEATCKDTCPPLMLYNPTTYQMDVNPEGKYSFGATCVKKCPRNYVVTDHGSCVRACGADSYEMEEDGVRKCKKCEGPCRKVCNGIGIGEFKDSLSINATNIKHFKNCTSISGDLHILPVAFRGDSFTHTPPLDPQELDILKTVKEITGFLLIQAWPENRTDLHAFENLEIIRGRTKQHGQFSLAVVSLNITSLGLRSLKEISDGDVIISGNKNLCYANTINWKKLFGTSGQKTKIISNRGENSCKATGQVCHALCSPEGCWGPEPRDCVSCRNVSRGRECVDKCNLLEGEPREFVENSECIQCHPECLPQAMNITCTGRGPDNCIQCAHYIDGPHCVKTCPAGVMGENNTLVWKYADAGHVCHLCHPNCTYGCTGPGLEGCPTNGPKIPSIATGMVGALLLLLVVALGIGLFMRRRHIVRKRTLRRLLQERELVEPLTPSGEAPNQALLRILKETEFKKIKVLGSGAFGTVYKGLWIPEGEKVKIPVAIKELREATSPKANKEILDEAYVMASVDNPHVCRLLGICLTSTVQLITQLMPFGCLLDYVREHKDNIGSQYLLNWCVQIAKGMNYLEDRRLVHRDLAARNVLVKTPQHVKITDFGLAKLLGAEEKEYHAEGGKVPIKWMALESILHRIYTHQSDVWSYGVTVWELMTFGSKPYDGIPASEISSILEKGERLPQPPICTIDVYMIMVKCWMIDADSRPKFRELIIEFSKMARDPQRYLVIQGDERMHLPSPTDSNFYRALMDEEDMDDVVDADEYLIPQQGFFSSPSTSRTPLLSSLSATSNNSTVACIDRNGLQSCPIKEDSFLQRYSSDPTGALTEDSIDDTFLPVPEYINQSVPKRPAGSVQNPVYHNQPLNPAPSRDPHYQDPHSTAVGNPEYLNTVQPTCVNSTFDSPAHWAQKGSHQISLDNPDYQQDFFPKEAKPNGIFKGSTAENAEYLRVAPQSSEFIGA
Experiment [8] concerns the target T3, Mitogen-activated protein kinase kinase kinase 6 (Homo sapiens, UniProt O95382).
T3 sequence (O95382 whole entry): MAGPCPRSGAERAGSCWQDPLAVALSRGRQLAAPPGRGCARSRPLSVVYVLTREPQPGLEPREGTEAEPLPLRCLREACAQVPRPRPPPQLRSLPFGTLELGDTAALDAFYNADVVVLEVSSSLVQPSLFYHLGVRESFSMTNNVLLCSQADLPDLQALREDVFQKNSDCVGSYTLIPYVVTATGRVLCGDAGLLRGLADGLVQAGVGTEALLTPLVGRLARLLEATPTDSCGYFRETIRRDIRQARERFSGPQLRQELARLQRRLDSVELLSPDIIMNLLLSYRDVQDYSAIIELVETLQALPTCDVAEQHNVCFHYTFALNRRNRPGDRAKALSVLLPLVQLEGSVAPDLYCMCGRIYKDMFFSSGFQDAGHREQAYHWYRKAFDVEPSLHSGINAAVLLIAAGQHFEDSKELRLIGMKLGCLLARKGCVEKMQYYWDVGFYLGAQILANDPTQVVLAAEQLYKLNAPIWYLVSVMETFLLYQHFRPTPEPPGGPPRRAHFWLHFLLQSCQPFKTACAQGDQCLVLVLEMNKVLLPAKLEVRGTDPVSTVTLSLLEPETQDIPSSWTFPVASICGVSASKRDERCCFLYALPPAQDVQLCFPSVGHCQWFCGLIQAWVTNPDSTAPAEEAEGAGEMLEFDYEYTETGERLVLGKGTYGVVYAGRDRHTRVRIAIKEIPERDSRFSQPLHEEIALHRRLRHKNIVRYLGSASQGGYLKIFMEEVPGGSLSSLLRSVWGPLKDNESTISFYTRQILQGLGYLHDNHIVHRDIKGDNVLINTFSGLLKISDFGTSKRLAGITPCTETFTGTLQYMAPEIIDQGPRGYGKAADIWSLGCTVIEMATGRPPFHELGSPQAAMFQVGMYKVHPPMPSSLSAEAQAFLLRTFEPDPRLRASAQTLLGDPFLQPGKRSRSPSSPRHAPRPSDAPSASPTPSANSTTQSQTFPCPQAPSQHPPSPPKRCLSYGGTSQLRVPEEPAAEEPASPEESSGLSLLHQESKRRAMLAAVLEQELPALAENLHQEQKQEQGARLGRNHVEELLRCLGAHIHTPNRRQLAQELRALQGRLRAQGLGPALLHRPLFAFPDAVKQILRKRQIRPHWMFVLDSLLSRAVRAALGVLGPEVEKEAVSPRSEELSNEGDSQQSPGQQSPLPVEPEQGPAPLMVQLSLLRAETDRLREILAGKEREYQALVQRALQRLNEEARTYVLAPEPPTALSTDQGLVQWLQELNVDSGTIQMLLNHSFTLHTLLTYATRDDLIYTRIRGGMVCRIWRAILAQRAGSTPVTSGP

The target of experiment [9] is T4, MAP kinase-activated protein kinase 5 (Homo sapiens, UniProt Q8IW41).
T4 sequence (Q8IW41 whole entry): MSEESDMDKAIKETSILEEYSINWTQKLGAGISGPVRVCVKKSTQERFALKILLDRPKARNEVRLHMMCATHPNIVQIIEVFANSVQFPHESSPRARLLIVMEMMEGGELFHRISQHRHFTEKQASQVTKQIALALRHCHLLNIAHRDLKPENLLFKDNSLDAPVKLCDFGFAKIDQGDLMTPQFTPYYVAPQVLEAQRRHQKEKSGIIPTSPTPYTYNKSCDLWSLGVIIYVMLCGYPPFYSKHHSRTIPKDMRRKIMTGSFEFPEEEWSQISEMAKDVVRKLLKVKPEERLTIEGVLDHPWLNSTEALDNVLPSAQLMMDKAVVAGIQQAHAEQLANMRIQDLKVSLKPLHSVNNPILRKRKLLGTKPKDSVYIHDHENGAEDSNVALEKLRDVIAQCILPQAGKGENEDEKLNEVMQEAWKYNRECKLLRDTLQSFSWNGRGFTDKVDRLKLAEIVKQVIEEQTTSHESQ

For experiment [10], the target named is Tyrosine-protein kinase Yes (Homo sapiens, UniProt P07947).
Chain of Tyrosine-protein kinase Yes (P07947 whole entry): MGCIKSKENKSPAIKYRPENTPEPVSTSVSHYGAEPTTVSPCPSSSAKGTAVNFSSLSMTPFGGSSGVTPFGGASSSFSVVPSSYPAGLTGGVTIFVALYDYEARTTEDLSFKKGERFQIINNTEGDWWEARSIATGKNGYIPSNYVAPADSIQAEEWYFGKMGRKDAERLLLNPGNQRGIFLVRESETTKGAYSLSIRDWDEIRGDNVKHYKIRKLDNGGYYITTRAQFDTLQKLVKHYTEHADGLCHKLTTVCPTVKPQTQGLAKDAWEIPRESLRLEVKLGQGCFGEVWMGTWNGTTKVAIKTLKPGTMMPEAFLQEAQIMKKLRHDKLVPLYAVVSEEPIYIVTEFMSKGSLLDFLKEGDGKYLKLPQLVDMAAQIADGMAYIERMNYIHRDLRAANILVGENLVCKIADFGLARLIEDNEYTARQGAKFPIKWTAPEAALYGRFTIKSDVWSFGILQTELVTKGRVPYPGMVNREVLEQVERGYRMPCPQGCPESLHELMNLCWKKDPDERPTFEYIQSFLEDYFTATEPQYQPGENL
Also: in the data inactive means no Kd found up to 30 µM.

With `C[C@@H](NC(=O)c1ncnc(N)c1Cl)c1ncc(C(=O)Nc2cc(C(F)(F)F)c(Cl)cn2)s1` [TOVORAFENIB], the Kd in experiment [1], in experiment [2], in experiment [3], in [4], in experiment [5] and in experiment [6] was > 30 µM (inactive) throughout. Besides, the Kd in experiment [7], in [8], in [9] and in [10] was > 30 µM (inactive) throughout.

Take `Cc1cc(Nc2ncnc3ccc(NC4=NC(C)(C)CO4)cc23)ccc1Oc1ccn2ncnc2c1` [TUCATINIB]: the Kd in experiment [1], in experiment [2], in experiment [3], in experiment [4], in [5] and in experiment [6] was > 30 µM (inactive) each time. For the same molecule, the Kd (usually a measure of binding affinity in units of concentration) is 2.53 µM (active) in [7], > 30 µM (inactive) in experiment [8], > 30 µM (inactive) in experiment [9] and > 30 µM (inactive) in experiment [10].

As for `CC(C)c1cc(CNc2nc(Nc3cc(C4CC4)[nH]n3)cc(N3CCN(C)CC3)n2)on1` [XL-228], the Kd is > 30 µM (inactive) in [1]; > 30 µM (inactive) in experiment [2]; > 30 µM (inactive) in experiment [3]; > 30 µM (inactive) in experiment [4]; > 30 µM (inactive) in experiment [5]; 0.133 µM (active) in experiment [6]. The Kd in experiment [7] was > 30 µM (inactive); in experiment [8] it was > 30 µM (inactive); in experiment [9], > 30 µM (inactive); in experiment [10] it was 0.171 µM (active).

Take `C[C@@H](N)c1ccc(C(=O)Nc2ccnc3[nH]ccc23)cc1` [Y-39983]: the Kd was > 30 µM (inactive) in experiment [1]; > 30 µM (inactive) in experiment [2]; > 30 µM (inactive) in experiment [3]; > 30 µM (inactive) in [4]; > 30 µM (inactive) in experiment [5]; 38.5 µM (active) in experiment [6]. In addition, the Kd in [7], in experiment [8], in [9] and in experiment [10] was > 30 µM (inactive) in each case.

As for `CN1C/C=C/CCOc2cccc(c2)-c2ccnc(n2)Nc2cccc(c2)C1` [ZOTIRACICLIB], the Kd was > 30 µM (inactive) in experiment [1]; > 30 µM (inactive) in experiment [2]; > 30 µM (inactive) in experiment [3]; > 30 µM (inactive) in experiment [4]; 1.6 µM in [5]; > 30 µM (inactive) in experiment [6]. Also, the Kd was 79.9 µM in experiment [7], > 30 µM (inactive) in experiment [8], > 30 µM (inactive) in experiment [9] and > 30 µM (inactive) in experiment [10].
